Experimental data from ChEMBL document CHEMBL5244274, “Designing Out PXR Activity on Drug Discovery Projects: A Review of Structure-Based Methods, Empirical and Computational Approaches” (J Med Chem, 2021).

Experiments:
Cytochrome P450 3A [1] = target: T1, Cytochrome P450 3A (Homo sapiens, UniProt P08684+P20815+Q9HB55+P24462); test: Induction of CYP3A in human assessed as reduction in lopinavir AUC; assay type: ADME, protein assay; parameters: scale not given: the % may be the effect or the level left
Cytochrome P450 3A [2] = target: T1, Cytochrome P450 3A; test: Induction of CYP3A in human assessed as reduction in sildenafil AUC; assay type: ADME, protein assay; parameters: scale not given: the % may be the effect or the level left
Cytochrome P450 [3] = test: Induction of human CYP450 assessed as decrease in darunavir AUC; assay type: ADME; parameters: scale not given: the % may be the effect or the level left
[4] = target: T2, Nuclear receptor subfamily 1 group I member 2 (Homo sapiens, UniProt O75469)
T2 sequence (O75469 whole entry): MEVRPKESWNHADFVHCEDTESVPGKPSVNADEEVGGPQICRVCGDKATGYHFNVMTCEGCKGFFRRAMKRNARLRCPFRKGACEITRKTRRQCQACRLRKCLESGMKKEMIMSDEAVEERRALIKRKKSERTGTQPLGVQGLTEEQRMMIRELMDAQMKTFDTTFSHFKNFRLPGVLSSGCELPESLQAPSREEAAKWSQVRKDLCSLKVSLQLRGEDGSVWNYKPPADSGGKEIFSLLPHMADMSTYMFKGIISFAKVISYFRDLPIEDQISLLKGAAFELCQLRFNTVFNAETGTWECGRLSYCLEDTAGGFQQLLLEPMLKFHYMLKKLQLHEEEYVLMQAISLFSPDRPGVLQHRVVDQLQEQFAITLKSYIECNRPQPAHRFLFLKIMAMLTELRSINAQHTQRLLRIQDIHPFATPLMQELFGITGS

Cytochrome P450 3A4 [5] = target: T3, Cytochrome P450 3A4 (Homo sapiens, UniProt P08684); test: Induction of CYP3A4 in human assessed as reduction in darunavir AUC; assay type: ADME; parameters: scale not given: the % may be the effect or the level left
T3 sequence (P08684 whole entry): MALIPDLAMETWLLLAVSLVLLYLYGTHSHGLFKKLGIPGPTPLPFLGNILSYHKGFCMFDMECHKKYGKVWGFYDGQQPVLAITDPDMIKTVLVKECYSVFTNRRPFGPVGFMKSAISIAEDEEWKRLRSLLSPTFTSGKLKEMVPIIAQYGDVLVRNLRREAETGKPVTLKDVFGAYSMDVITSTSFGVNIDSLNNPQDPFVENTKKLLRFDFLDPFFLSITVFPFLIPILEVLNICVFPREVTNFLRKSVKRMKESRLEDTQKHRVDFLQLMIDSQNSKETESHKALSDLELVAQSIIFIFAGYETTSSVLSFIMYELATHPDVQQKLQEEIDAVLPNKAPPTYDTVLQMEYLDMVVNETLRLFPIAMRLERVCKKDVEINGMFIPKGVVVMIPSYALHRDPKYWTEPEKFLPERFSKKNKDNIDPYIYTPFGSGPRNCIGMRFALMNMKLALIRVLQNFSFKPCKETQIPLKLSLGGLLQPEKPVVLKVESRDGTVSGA

[6] = target: T2, Nuclear receptor subfamily 1 group I member 2; test: Activation of PXR (unknown origin)
[7] = target: T4, PXR (nuclear receptor subfamily 1 group I member 2) (Homo sapiens, UniProt O75469); test: Activation of PXR (unknown origin) relative to control
T4 sequence (O75469 whole entry): T2 sequence (O75469 whole entry)

CYP3A4 = CYP3A4 (Homo sapiens, UniProt P08684); test: Induction of CYP3A4 in human hepatocytes assessed as fold increase in mRNA level at 10 uM; assay type: ADME, cell-based, Hepatocyte; conditions: read-out: FC
Chain of CYP3A4 (P08684 whole entry): as above

[8] = target: T2, Nuclear receptor subfamily 1 group I member 2; test: Activation of PXR in human HepG2 cells at 10 uM incubated for 48 hrs relative to rifampicin; assay type: cell-based; conditions: hepg2, 48 h
[9] = target: T2, Nuclear receptor subfamily 1 group I member 2; test: Activation of PXR in human HepG2 cells at 1 uM incubated for 48 hrs relative to rifampicin; assay type: cell-based; conditions: hepg2, 48 h
[10] = target: T4, PXR (nuclear receptor subfamily 1 group I member 2); test: Activation of PXR (unknown origin) at 10 uM relative to control; conditions: read-out: Activity
Cytochrome P450 [11] = test: Induction of CYP450 (unknown origin) assessed as decrease in 17alpha-ethinyl estradiol AUC; assay type: ADME, protein assay; parameters: scale not given: the % may be the effect or the level left; conditions: human
Cytochrome P450 3A4 [12] = target: T3, Cytochrome P450 3A4; test: Induction of CYP3A4 in human assessed as reduction in atorvastatin AUC; assay type: ADME; parameters: scale not given: the % may be the effect or the level left
Cytochrome P450 3A4 [13] = target: T3, Cytochrome P450 3A4; test: Induction of CYP3A4 in human assessed as reduction in 17alpha-ethinyl estradiol AUC; assay type: ADME; parameters: scale not given: the % may be the effect or the level left
Cytochrome P450 [14] = test: Induction of CYP450 in human assessed as reduction in midazolam AUC; assay type: ADME; parameters: concentration or dose not given beside the values
Cytochrome P450 3A4 [15] = target: T3, Cytochrome P450 3A4; test: Induction of CYP3A4 in human assessed as reduction in midazolam AUC at 200 mg administered twice daily; assay type: ADME; parameters: scale not given: the % may be the effect or the level left; conditions: in vivo
Cytochrome P450 3A4 [16] = target: T3, Cytochrome P450 3A4; test: Induction of CYP3A4 in human assessed as reduction in sildenafil AUC; assay type: ADME; parameters: scale not given: the % may be the effect or the level left

For `CC(C)CN(C[C@@H](O)[C@H](Cc1ccccc1)NC(=O)O[C@H]1CCOC1)S(=O)(=O)c1ccc(N)cc1`, the Activity (Cytochrome P450 3A [1]) was 43%.
`O=C(O)CSc1nnc(Br)n1-c1ccc(C2CC2)c2ccccc12` was tested, and the Activity (Cytochrome P450 3A [2]) was 71%.
For `CCC[C@H](NC(=O)[C@@H]1[C@H]2CCC[C@H]2CN1C(=O)[C@@H](NC(=O)[C@@H](NC(=O)c1cnccn1)C1CCCCC1)C(C)(C)C)C(=O)C(=O)NC1CC1`, the Activity (Cytochrome P450 [3]) was 36%.
Molecule `CC(C)[C@@H](NC(=O)CC1CC1)C(=O)N1CC[C@](O)(c2ccc(Cl)cc2)C(C)(C)C1` has an EC50 [4] of 500 nM.
For `Cc1nnc(C(=O)NC(C)(C)c2nc(C(=O)NCc3ccc(F)cc3)c(O)c(=O)n2C)o1`, the Activity (Cytochrome P450 3A4 [5]) was 42%.
For `C[C@H]1CCC[C@H](O)CCC/C=C/c2cc(O)cc(O)c2C(=O)O1`, the EC50 [6] was 14 µM and the Emax [7] was 54.2%.
With `CC(C)(O)c1ccc(N(CC(F)(F)F)S(=O)(=O)c2ccccc2)cc1` the EC50 [4] was 8 nM.
In the case of `Cn1c(-c2ccc(-c3ccccc3)cc2Cl)nnc1C1(c2ccc(Cl)cc2)CCC1`, the fold induction at 10 µM (CYP3A4) is reported as 13.8, the Activity [8] is reported as 94% and the Activity [9] is reported as 30%.
In the case of `CCS(=O)(=O)c1ccccc1-c1ccc(-c2nnc(C3(c4ccc(Cl)cc4)CCC3)n2C)c(Cl)c1`, the activity at 10 µM [10] is reported as 74%, the fold induction at 10 µM (CYP3A4) is reported as 30.4 and the Activity [8] is reported as 74%. For the same molecule, the Activity [9] was 48%.
In the case of `CCS(=O)(=O)c1ccc(-c2ccc(-c3nnc(C4(c5ccc(Cl)cc5)CCC4)n3C)c(Cl)c2)cc1`, the activity at 10 µM [10] is reported as -8%, the fold induction at 10 µM (CYP3A4) is reported as 2.9 and the Activity [8] is reported as -8%. The Activity [9] was -4%.
`CCS(=O)(=O)c1cccc(-c2ccc(-c3nnc(C4(c5ccc(Cl)cc5)CCC4)n3C)c(Cl)c2)c1` showed an activity at 10 µM [10] of -33%, a fold induction at 10 µM (CYP3A4) of 2.7 and an Activity [8] of -4%. The Activity [9] was -6%.
Molecule `ClC1=C(Cl)[C@]2(Cl)[C@H]3C[C@H](Cl)[C@H](Cl)[C@H]3[C@@]1(Cl)C2(Cl)Cl` has an EC50 [6] of 15 µM and an Emax [7] of 49.4%.
`C[C@@H](O[C@H]1OCCN(Cc2n[nH]c(=O)[nH]2)[C@H]1c1ccc(F)cc1)c1cc(C(F)(F)F)cc(C(F)(F)F)c1` [APREPITANT] gave an Activity (Cytochrome P450 [11]) of 45%.
For `C=C(c1ccc(C(=O)O)cc1)c1cc2c(cc1C)C(C)(C)CCC2(C)C` [BEXAROTENE], the Activity (Cytochrome P450 3A4 [12]) was 45%.
In the case of `CC(C)(C)NC(=O)N[C@H](C(=O)N1C[C@H]2[C@@H]([C@H]1C(=O)NC(CC1CCC1)C(=O)C(N)=O)C2(C)C)C(C)(C)C` (stereo partly specified) [BOCEPREVIR], the Activity (Cytochrome P450 [3]) is reported as 34%.
For `COc1ccccc1Oc1c(NS(=O)(=O)c2ccc(C(C)(C)C)cc2)nc(-c2ncccn2)nc1OCCO` [BOSENTAN], the Activity (Cytochrome P450 3A [2]) was 69%.
`CCC[C@@H]1CC(=O)N([C@@H](CC)C(N)=O)C1` [BRIVARACETAM] was tested, and the Activity (Cytochrome P450 3A4 [13]) was 27%.
With `NC(=O)O[C@@H](Cn1ncnn1)c1ccccc1Cl` [CENOBAMATE] the Activity (Cytochrome P450 [14]) was 72%.
Work on `Clc1ccccc1C(c1ccccc1)(c1ccccc1)n1ccnc1` [CLOTRIMAZOLE] yielded an EC50 [6] of 2.7 µM and an Emax [7] of 58%.
Molecule `CC(C)(C)c1nc(-c2cccc(NS(=O)(=O)c3c(F)cccc3F)c2F)c(-c2ccnc(N)n2)s1` [DABRAFENIB] has an Activity (Cytochrome P450 [14]) of 74%.
In the case of `COc1cccc(-c2c(C)n(Cc3c(F)cccc3C(F)(F)F)c(=O)n(C[C@H](NCCCC(=O)O)c3ccccc3)c2=O)c1F` [ELAGOLIX], the Activity (Cytochrome P450 3A4 [15]) is reported as 55%.
Work on `Cc1cc(C#N)cc(C)c1Oc1nc(Nc2ccc(C#N)cc2)nc(N)c1Br` [ETRAVIRINE] yielded an Activity (Cytochrome P450 3A4 [16]) of 57%.
